# According to patent US20040127567A1, “Novel methods for treating disorders in which docosahexaenoic acid (DHA) levels are affected” (Beth Israel Deaconess Medical Center, Inc., priority 1998, published 2004):
# Assays:
# CFTR−/− mice [1] = assay: Fatty acid levels (GC/MS) in pancreas and lung cells of CFTR−/− mice fed n-3 fatty acids; assay type: in vivo, mouse; settings: CFTR-/- mice, 40 mg/day for one week (fish oil: dose equivalent to 40 mg DHA, 60 mg EPA, 15 mg LNA); mean ± S.D.
# Procedure: Mouse pancreatic acinar and lung cell suspensions were prepared from wild type (n=3) and CFTR−/− mice (n=3) by enzymatic and mechanical dissociation. In addition, brain, kidney, heart, spleen, and blood were sonicated in 0.3M sucrose buffer. Membrane lipids were extracted from cell and organ preparations with 20 volumes of chloroform-methanol 2:1 (v/v), transmethylated with 0.5 mL of 0.1 N methanolic-NaOH/BF3 reagent, and the resulting fatty acid methyl esters analyzed by gas chromatography/mass spectrometry (GC/MS). In a different set of experiments, lipids were fractionated by aminopropyl column chromatography into triglycerides, cholesterol esters, and phosphoglycerides and the fatty acid composition of each lipid class determined by a combination of enzymatic hydrolysis, transmethylation, and GC/MS.
# Cystic fibrosis (UNC strain) and wild type mice (12-20 grams body weight) were fed with a complete liquid enteral formulation (Peptamen™, Nestle Clinical Nutrition, Inc.) supplemented with different quantities of the DHA-containing formulation Neuromins (Nature's Way Products Inc., Springville, Utah). DHA content in the Neuromins formulation was 100 mg per 500 mg of formulation. Mice were fed once a day at about 11 a.m., seven days a week with 20 ml of Peptamen™ supplemented with the various amounts of either Neuramins, free DHA (Sigma Chemical Co., MO) or DHA-ethyl ester (Nu-Check-Prep, Inc. MN) ranging from 0.5 mg/day of DHA to 40 mg/day of DHA.
# Lung and acinar cells were isolated from a CF mouse fed with DHA formula (mouse-1, 40 mg/day DHA). The pellets (0.5 mL for pancreas cell homogenate and 0.6 mL for lung cell homogenate) were extracted with 3 mL of chloroform-methanol 2:1 (v/v). The resulting emulsion was vortexed, centrifuged at 800 g for 3 min., and the lower phase aspirated. The residual upper phase was partitioned again with 3 mL of chloroform-methanol 2:1 (v/v), the lower phase aspirated and both lower phases combined. Fractions were evaporated to dryness, processed for fatty acid methyl esters (FAME) and were analyzed by GC-MS analysis. Aliquots of 10 μL of 17:0 methyl ester solution in hexane [1 μg/μL] were added to the samples after methylation.
# (§1) Lung and acinar cells were isolated from a CF and a wild-type (WT) mouse fed with DHA formula. The pellets (0.5 mL for pancreas cell homogenate and 0.6 mL for lung cell homogenate) were extracted with 3 mL of chloroform-methanol 2:1 (v/v). The resulting emulsion was vortexed, centrifuged at 800 g for 3 min., and the lower phase aspirated. The residual upper phase was partitioned again with 3 mL of chloroform-methanol 2:1 (v/v), the lower phase aspirated and both lower phases combined. Fractions were evaporated to dryness, processed for FAME and analyzed by GC-MS. Aliquots of 20 μL of 17:0 in chloroform-methanol 2:1 (v/v) were added to the samples before methylation.
# as §1, with “from” for “from a”, “mice” for “and a wild-type (WT) mouse”, “different doses of DHA, i.e., 0.5 mg/day, 2.0 mg/day, 10 mg/day or 40 mg/day DHA.” for “DHA formula.”, “pellets” for “pellets (0.5 mL for pancreas cell homogenate and 0.6 mL for lung cell homogenate)”, “30” for “20”
# CFTR−/− mice were prepared as described in Example 1. Both CFTR−/− mice and wild type mice were euthanized with carbon dioxide, and cell suspensions from pancreas and lung isolated.
# CFTR−/− mice [2] = assay: as above; assay type: in vivo, mouse; settings: CFTR-/- mice, 40 mg/day for one week (fish oil: dose equivalent to 40 mg DHA, 60 mg EPA, 15 mg LNA); mean ± S.D.; remark: listed apart in the source
smiles,measurement,setting,value
"CC/C=C\C/C=C\C/C=C\C/C=C\C/C=C\CCCC(=O)O [EPA, Eicosapentaenoic acid, reference compound]",DHA level in pancreas,CFTR−/− mice [1],2.2 ± 0.4 nmol/mg
same,AA level in pancreas,CFTR−/− mice [2],5.1 ± 0.3 nmol/mg
